The record followed here is ChEMBL document CHEMBL2375323, “Cu(OTf)2 catalyzed three component reaction: efficient synthesis of spiro[indoline-3,4'-pyrano[3,2-b]pyran derivatives and their anticancer potency towards A549 human lung cancer cell lines” (Bioorg Med Chem Lett, 2013).

Structures are written as SMILES.

In the assay the test system is A549. Nature of the assay: Cytotoxicity against human A549 cells assessed as growth inhibition by MTT assay. Format: functional, cell-based. For orientation: Formazan colour is commonly taken as a measure of viable cells.
Usually IC50 stands for the concentration needed to halve the response being measured. For `CCOC(=O)C1=C(N)Oc2c(oc(CO)cc2=O)C12C(=O)N(C)c1ccccc12` (centres undefined), the IC50 was determined as 55.8 µM.
For `CCOC(=O)C1=C(N)Oc2c(oc(CO)cc2=O)C12C(=O)Nc1ccc(Br)cc12` (centres undefined) the value was 52.8 µM; for `COC(=O)C1=C(N)Oc2c(oc(CO)cc2=O)C12C(=O)Nc1ccccc12` (centres undefined), 56.2 µM.
For `N#CC1=C(N)Oc2c(oc(CO)cc2=O)C12C(=O)Nc1ccc(F)cc12` (centres undefined) the value was above 200 µM.
For `CCOC(=O)C1=C(N)Oc2c(oc(CO)cc2=O)C12C(=O)Nc1ccccc12` (centres undefined) the value was above 200 µM; for `C=CCN1C(=O)C2(C(C#N)=C(N)Oc3c2oc(CO)cc3=O)c2ccccc21` (centres undefined), 59.4 µM; for `CCOC(=O)C1=C(N)Oc2c(oc(CO)cc2=O)C12C(=O)Nc1ccc(Cl)cc12` (centres undefined), 53.1 µM.
In the case of `N#CC1=C(N)Oc2c(oc(CO)cc2=O)C12C(=O)Nc1ccc(Cl)cc12` (centres undefined), the IC50 was 51.4 µM.
With `N#CC1=C(N)Oc2c(oc(CO)cc2=O)C12C(=O)Nc1ccc(Br)cc12` (centres undefined) the figure was above 200 µM.
As for `CCOC(=O)C1=C(N)Oc2c(oc(CO)cc2=O)C12C(=O)Nc1ccc(F)cc12` (centres undefined), the half-inhibitory concentration (IC50) is above 200 µM.
For `C=CCN1C(=O)C2(C(C(=O)OCC)=C(N)Oc3c2oc(CO)cc3=O)c2ccccc21` (centres undefined) the value was 54.6 µM.
Take `C#CCN1C(=O)C2(C(C#N)=C(N)Oc3c2oc(CO)cc3=O)c2ccccc21` (centres undefined): the IC50 is above 200 µM.
On to `N#CC1=C(N)Oc2c(oc(CO)cc2=O)C12C(=O)Nc1ccccc12` (centres undefined), for which the concentration for half-maximal inhibition (IC50) turned out to be 52.8 µM.
With `CN1C(=O)C2(C(C#N)=C(N)Oc3c2oc(CO)cc3=O)c2ccccc21` (centres undefined) the figure was 51.1 µM; with `N#CC1=C(N)Oc2c(oc(CO)cc2=O)C12C(=O)N(Cc1ccccc1)c1ccccc12` (centres undefined), above 200 µM; with `COC(=O)C1=C(N)Oc2c(oc(CO)cc2=O)C12C(=O)Nc1ccc(C)cc12` (centres undefined), 62.8 µM.
With `CCOC(=O)C1=C(N)Oc2c(oc(CO)cc2=O)C12C(=O)Nc1ccc(C)cc12` (centres undefined), the IC50 came out at 52.9 µM.
As to `COC(=O)C1=C(N)Oc2c(oc(CO)cc2=O)C12C(=O)N(Cc1ccccc1)c1ccccc12` (centres undefined), the 50% inhibitory concentration (IC50) is 55.1 µM.
As for `COC(=O)C1=C(N)Oc2c(oc(CO)cc2=O)C12C(=O)Nc1ccc([N+](=O)[O-])cc12` (centres undefined), the IC50 was found to be 55.9 µM.
